In patent publication US8263095B2, “Methods of use for peptides having activities of insulin like growth factor-1” (Caregen Co., Ltd., priority 2006, dated 2012):
Bridge positions count the residues as written; N and C are the ends. Ends that are not written are not given here. * marks the point of attachment. FITC = O=C1OC2(c3ccc(O)cc3Oc3cc(O)ccc32)c2ccc(NC(=S)*)cc21; βAla = NCCC(=O)O

System: receptors on surface of 3T3 fibroblasts
Assay: Binding of fluorescence-labeled peptide to receptors on fibroblasts
Settings: 1 mg/ml, 1 hr incubation, fluorescence and optical microscopy
Protocol: 3T3 fibroblasts were cultured in 250 ml-flasks containing EMEM (Eagle's minimal essential media, Gibco, U.S.A.) supplemented with […] FBS (fetal bovine serum). After 48-hr culture, the supernatant of the medium was discarded and the remainder was washed once with PBS (phosphate buffered saline). FITC-b-Ala-CDLRRLEMYC prepared in Preparation Example 4 was dissolved in DMSO and PBS to a concentration of 1 mg/ml and incubated for 1 hr with cells cultured. After removing medium, cells were completely washed and their surface was observed under fluorescence and optical microscopes.

## FITC-b-Ala-Cys-Asp-Leu-Arg-Arg-Leu-Glu-Met-Tyr-Cys ({FITC-βAla}-CDLRRLEMYC; disulfide 1-10) [FITC-labeled peptide]
  binding of the FITC-labeled peptide to receptors on cell (FIG. 12): binds to receptors on surface of fibroblasts
